Assay results: patent US20240189343A1, “TREATMENT OF VIRUS INFECTIONS” (priority 2021, published 2024)
pEC50: −log10 of the molar value. Counter-ions that a name gives are not always drawn. Like-named read-outs stand apart in the source and are kept apart here.

Tests used:
DENV1 (strain Hawaii) = test: microbe, parasite or virus in culture; assay type: cell-based, dengue virus
[1] = test system: DENV2 (strain New Guinea C); test: microbe, parasite or virus in culture; assay type: cell-based, dengue virus
DENV3 (strain H87) = test: microbe, parasite or virus in culture; assay type: cell-based, dengue virus
DENV4 (strain H241) = test: microbe, parasite or virus in culture; assay type: cell-based, dengue virus
[2] = test system: ZIKV African lineage (Strain MP1751); test: microbe, parasite or virus in culture; assay type: cell-based, Zika virus
[3] = test system: ZIKV Asian lineage (PF/13); test: microbe, parasite or virus in culture; assay type: cell-based, Zika virus
YF17D = test: microbe, parasite or virus in culture; assay type: cell-based, yellow fever virus
Zika virus PF13 [4] = test: Zika virus infection of HeLa Kyoto cells, immunofluorescence infectivity readout (Example 1); assay type: cell-based; settings: MOI 0.5, 3 and 5, 600, 200, 60 μg/ml, 1 h pre-incubation, 48 h
Method: (§1) Cells were detached and counted. […] 50 μl of diluted virus or media (uninfected control) was immediately added. […] After 48 h, the plates were washed with PBS, fixed for 30 mins with 4% formaldehyde, washed again with PBS, and stored in PBS at 4° C. until staining. Cells were immunostained with immunofluorescence staining. Briefly, any residual formaldehyde was quenched with 50 mM ammonium chloride, after which cells were permeabilised (0.1% Triton X100) and stained with an antibody recognizing flavivirus envelope protein (Millipore, MAB10216). The primary antibodies were detected with an Alexa-488 conjugate secondary antibody (Life Technologies, A11001), and nuclei were stained with Hoechst. […] Normalized percentages of inhibition were calculated using the following formula: […]

Zika virus PF13 [5] = test: Zika virus infection of Vero AD cells, immunofluorescence infectivity readout (Example 1); assay type: cell-based; settings: for inhibition of Zika virus infection: Vero AD cells, MOI 0.05 and 0.01, 600, 200, 60 μg/ml, 1 h pre-incubation, 48 h
Method: as §1

Huh-7 cells = settings: MTT, 48 h
HeLa Kyoto cells [6] = test: MTT cytotoxicity in HeLa Kyoto cells (Example 2); settings: 48 h
Vero AD cells = test: MTT cytotoxicity on uninfected Vero AD cells (Example 1); settings: 600, 200, 60 μg/ml
HeLa Kyoto cells [7] = test: MTT cytotoxicity on uninfected HeLa Kyoto cells (Example 1); settings: 600, 200, 60 μg/ml
[8] = test system: Huh-7 and HeLa Kyoto cells; test: MTT cytotoxicity, Example 2, cell line not specified in the statement; settings: highest concentration tested (10 mg/ml); no cytotoxicity at the other concentrations
rats = settings: cited from earlier work
Zika virus = settings: 200 μg/ml; Vero cells; cited from earlier work

CC[C@@]1([C@@H]2O[C@@H]([C@H]3O[C@@](O)(CO)[C@H](C)C[C@@H]3C)C[C@@H]2C)CC[C@H]([C@]2(C)CC[C@]3(C[C@H](O)[C@@H](C)[C@@H]([C@@H](C)[C@@H](OC)[C@H](C)C(=O)O)O3)O2)O1 [Monensin, Monensin sodium salt, reference compound]
pEC50 (DENV1 (strain Hawaii); Dengue virus, DENV1, Huh-7): 8.92 | pEC50 ([1]; Dengue virus, DENV2, Huh-7): 9.06 | pEC50 (DENV3 (strain H87); Dengue virus, DENV3, Huh-7): 9.16 | pEC50 (DENV4 (strain H241); Dengue virus, DENV4, Huh-7): 8.58 | pEC50 ([2]; Zika virus, HeLa Kyoto): 7.15 | pEC50 ([3]; Zika virus, HeLa Kyoto): 7.17 | pEC50 (YF17D; Yellow fever virus, Huh-7): 8.18

dextran sulfate [listing 1 of 3 here]
inhibition of Zika virus infection (Zika virus PF13 [4]): significant and dose dependent inhibition | inhibition of Zika virus infection (Zika virus PF13 [4]; listed as dextran sulfate): inhibits Zika virus infection in human Hela cells in a concentration dependent manner | % of infection inhibition (Zika virus PF13 [5]; 200 μg/ml, Vero cells, FIG. 2A (MOI 0.05)): more than 80% | inhibition of Zika virus infection (Zika virus PF13 [5]): significant and dose dependent inhibition | inhibition of Zika virus infection (Zika virus PF13 [5]; listed as dextran sulfate): inhibits Zika virus infection in Vero cells in a concentration dependent manner | IC50 (inhibition of infection) (DENV1 (strain Hawaii)): ≤ 600 µg/mL | inhibition of virus infection into human cells (DENV1 (strain Hawaii)): > 90% | EC50 (DENV1 (strain Hawaii); 48 h): 290 µg/mL | IC50 (inhibition of infection) [1]: ≤ 600 µg/mL | EC50 ([1]; 48 h): 120 µg/mL | IC50 (inhibition of infection) (DENV3 (strain H87)): ≤ 600 µg/mL | EC50 (DENV3 (strain H87); 48 h): 30 µg/mL | IC50 (inhibition of infection) (DENV4 (strain H241)): ≤ 600 µg/mL | EC50 (DENV4 (strain H241); 48 h): 610 µg/mL | IC50 (inhibition of infection) [2]: less than 0.140 mg/ml | EC50 ([2]; 48 h): 60 µg/mL | IC50 (inhibition of infection) [3]: less than 0.140 mg/ml | inhibition of virus infection into human cells [3]: > 90% | EC50 ([3]; 48 h): 140 µg/mL | IC50 (inhibition of infection) (YF17D): less than 0.05 mg/ml | inhibition of virus infection into human cells (YF17D): > 90% | EC50 (YF17D; 48 h): 40 µg/mL | TC50 (Huh-7 cells; table line Dengue virus 1 Hawaii strain (Huh-7)): >10000 µg/mL | TC50 (Huh-7 cells; table line Dengue virus 2 New Guinea C strain (Huh-7)): >10000 µg/mL | TC50 (Huh-7 cells; table line Dengue virus 3 H87 strain (Huh-7)): >10000 µg/mL | TC50 (Huh-7 cells; table line Dengue virus 4 H241 strain (Huh-7)): >10000 µg/mL | TC50 (Huh-7 cells; table line Yellow Fever virus 17D strain (Huh-7)): >10000 µg/mL | TC50 (HeLa Kyoto cells [6]; table line Zika virus African strain (HeLa Kyoto)): >10000 µg/mL | TC50 (HeLa Kyoto cells [6]; table line Zika virus Asian strain (HeLa Kyoto)): >10000 µg/mL | cytotoxicity (MTT) (Vero AD cells): No significant cytotoxicity | cytotoxicity (MTT) (HeLa Kyoto cells [7]): No significant cytotoxicity | cytotoxicity (maximal) [8]: ≤ 16%

dextran sulfate [listing 2 of 3 here]
toxicity to rats (rats): highly toxic

dextran sulfate [listing 3 of 3 here]
% infection inhibition (Zika virus): about 60%
